From PMC4997316, “A ruthenium polypyridyl intercalator stalls DNA replication forks, radiosensitizes human cancer cells and is enhanced by Chk1 inhibition” (Scientific Reports, 2016) come the findings set out here.

SMILES strings stand for the structures.

Experiment [1] has as its system Calf thymus DNA. The experiment can be described thus: relative viscosity of DNA on addition of complex. Format: binding. The conditions noted are these: calf thymus DNA 4.19 × 10^−5 M, r 0-0.3. The procedure: The novel ruthenium(II) polypyridyl complexes [Ru(dppz)2(PIP)]^2+, 1, and [Ru(dppz)2(p-HPIP)]^2+, 2, (dppz = dipyrido[3,2-a:2′,3′-c]phenazine, PIP = (2-(phenyl)imidazo[4,5-f][1,10]phenanthroline) and p-HPIP ((2-(4-hydroxyphenyl)imidazo[4,5-f][1,10]phenanthroline)) were prepared by modification of reported synthetic pathways[17][30][31] and characterised by standard spectroscopic and analytical techniques (Figs S1–7 in the Supplementary Information). Evidence of a reversible binding interaction with DNA is provided by evidence of hypochromicity of the absorption spectra of 1 and 2 with increasing concentrations of DNA (Fig. S8). […] To investigate specific binding mode, relative viscosities of DNA with increasing concentrations of each complex were determined, where an increase in relative viscosity corresponds to the unwinding and lengthening of the DNA strand as a result of intercalation. […]
Calf thymus DNA, CT-DNA, (Sigma) was dissolved in NaCl (25 mm) and Tris (5 mm, pH 7.0) buffer and concentrations of determined spectroscopically (ε = 6600 dm^3 mol^−1cm^−1 at 260 nm). […] An equilibration time of 20 min was allowed before the flow times were recorded by Cannon–Manning semimicro viscometer (size 50) immersed in a thermostat bath (27 °C). Times were recorded in triplicate to within 0.1 second of each other and averaged values obtained.

In experiment [2] the test system is HeLa cervical cancer cells. The experiment in a line: MTT proliferation assay, HeLa. Format: cell-based, human. The conditions noted are these: 24 h proliferation assay. The procedure: (LC3 = Microtubule-associated protein light chain 3) (Fig. 2b, bottom).
Cells were seeded in 96 well plates at 20,000 cells/well, allowed to proliferate for 24 h before treatment as described in the main text. 0.5 mg ml^−1 MTT (thiazolyl blue tetrazolium bromide) dissolved in serum-free media was added for 60 minutes and the formazan product eluted using acidified isopropanol. The absorbance at 540 nm was quantified by plate reader (reference wavelength 650 nm). The metabolic activity of the cell population was determined as a percentage of a negative (solvent) control.

Experiment [3] concerns HeLa cells. The experiment can be described thus: irradiation and clonogenic survival assay. It is filed as cell-based, human. The conditions noted are these: for DEF (dose enhancement factor): LD10 [without complex]/LD10 [with complex]; for Radiosensitivity (AUC): area under the survival curve, DMSO 3.83; for LD10: from regression of survival curves, DMSO 6.7; for radiation enhancement ratio (RER): radiosensitivity [without complex]/radiosensitivity [with complex]. As for the experimental part:
Chemotherapeutics are often used in combination with external beam ionising radiation in the treatment of cancers and many drugs that inhibit DNA replication are potent radiosensitizers. To examine the possibility that 1 may function as a radiosensitizer, HeLa cells were pre-treated with 1 for 20 h before irradiation (0–6 Gy ionising irradiation (IR); ^137Cs-γ-rays; dose rate = 0.809 Gy min^−1). After further incubation for 4 h with the complex, the relative impact on cell viability was assessed by clonogenic survival. Complex 2, which achieves its impact on cell proliferation through non-DNA damage-based autophagy, was included in parallel for comparison. […] The formation of γH2AX is an early response to IR-induced DSB generation and may provide an indication of DNA damage levels. […] These findings indicate increased levels of DNA damage at an early time point accompany the enhanced radiation-induced cell killing in HeLa cells radiosensitised by 1.
HeLa cells were pre-treated with DMSO, 1 or 2 for 20 h and irradiated using a ^137Cs γ-irradiator (IBL637, CIS Bio Int.; dose rate = 0.809 Gy min^−1). Solutions were removed 4 h after irradiation; cells detached using Trypsin and re-seeded in 6 well plates at a density of 1000 cells/well (in triplicate). Cells were incubated for 7–10 days after re-seeding to allow colony formation before being fixed with 10% methanol, 10% acetic acid and stained with 0.4% methylene blue. Colonies containing 50 cells or greater were counted using a Gelcount instrument and accompanying software (Oxford Optronix). Plating efficiencies were determined for each treatment condition and normalised to controls to provide the survival fraction. Resultant survival fraction (S.F.) versus radiation dose curves were fitted using a second order polynomial function (R^2 values > 0.99). […]
Table S2. Radiosensitization data for 1 and 2 in HeLa cells.
LD10 (Gy) DEF Radiosensitivity RER
Survival variables LD10 (10 % lethal dose) and radiosensitivity, which is expressed as the area under
the survival curve (AUC), derived from linear regression analyses of survival curves (R 2 values ≥
0.989 for all fits). Dose enhancement factor (DEF) = LD 10 [without complex]/LD10 [with complex].
Radiation enhancement ratio (RER) = radiosensitivity [without complex]/radiosensitivity [with

Usually IC50 stands for the concentration that gives 50% inhibition. Higher therefore signals lower potency. Turning to `[Ru+2].c1ccc(-c2nc3c4cccnc4c4ncccc4c3[nH]2)cc1.c1ccc2nc3c4cccnc4c4ncccc4c3nc2c1.c1ccc2nc3c4cccnc4c4ncccc4c3nc2c1` [Complex 1, [Ru(dppz)2(PIP)]^2+], in experiment [1], the “relative viscosity of DNA” value is reported as “increase relative viscosity of DNA”. For the same compound, in experiment [2], it took 38 µM to reach half-maximal inhibition (IC50). The “decrease in cell survival versus 6 Gy γ-rays alone” value in experiment [3] (40 μM plus 6 Gy) turned out to be 6.8 fold. Besides, the “survival fraction (S.F.) with 6 Gy γ-rays” value in experiment [3] (40 μM, 20 h before and 4 h after irradiation, 6 Gy alone 21.1 +/− 2%) is on record as 3.1 +/− 1%. Also, the “survival fraction (S.F.) in the absence of radiation” value in experiment [3] (40 μM, 24 h) is ~ 85%. In addition, in experiment [3] (40 μM), the “DEF (dose enhancement factor)” value was found to be 1.49, the “Radiosensitivity (AUC)” value is given as 2.59, the LD10 is on record as 4.5 Gy and the “radiation enhancement ratio (RER)” value amounted to 1.48.

Regarding `Oc1ccc(-c2nc3c4cccnc4c4ncccc4c3[nH]2)cc1.[Ru+2].c1ccc2nc3c4cccnc4c4ncccc4c3nc2c1.c1ccc2nc3c4cccnc4c4ncccc4c3nc2c1` [Complex 2, [Ru(dppz)2(p-HPIP)]^2+], the “relative viscosity of DNA” value in experiment [1] is “increase relative viscosity of DNA”. Moreover, the half-inhibitory concentration (IC50) in experiment [2] was found to be 14 µM. Moreover, in experiment [3] (40 μM), the “DEF (dose enhancement factor)” value is on record as 1.14, the “Radiosensitivity (AUC)” value turned out to be 3.39, the LD10 amounted to 5.9 Gy and the “radiation enhancement ratio (RER)” value is 1.13.
